Results: US20240374646A1, “COMPOSITION FOR INHIBITING INFLAMMATION OR AGING OF STEM CELLS, AND METHOD FOR INHIBITING INFLAMMATION OR AGING BY USING SAME” (MITOIMMUNE THERAPEUTICS INC., priority 2021, published 2024)

What was measured:
Assay type in all cases: cell-based, human
[1] = system: dynamin-related protein 1 (DRP1); experiment: Real-time qPCR, mitochondrial dynamics gene DRP1; conditions: vs TNF-α/IFN-γ-exposed MSC control (TI); FIG. 2B
Procedure: (§1) Real-time qPCR was performed using an Easy-Spin Total RNA Kit (iNtRON, Seongnam, Korea) to extract total RNA from hPD-MSCs and RNA concentration was adjusted to 100 ng/μL using a microplate spectrophotometer (Epoch™ Microplate Spectrophotometer, BioTek, Winooski, VT, USA), and the extracted RNA was reverse transcribed into cDNA using RT PreMix (dT20) (Bioneer, Seoul, Korea) using a SimpliAmp Thermal Cycler (Life Technologies, Carlsbad, CA, USA). Real-time qPCR was performed using a real-time PCR machine (CFX Connect, Bio-Rad, Hercules, CA, USA), SYBR Green Supermix (Bio-Rad) and the relevant primers, and all experiments were performed in triplicate for statistical analysis.
To investigate mitochondrial dynamics, real-time qPCR was performed to analyze the expression of dynamin-related protein 1 (DRP1), which is a mitochondrial division-related gene, and mitofusion 1 (MFN1) and mitofusion 2 (MFN2), which are […] mitochondrial membrane fusion-related genes. As the real-time qPCR analysis method, the same method described in Experimental Example 1-2 above was used, and the results are shown in FIG. 2B.

[2] = system: IL-1β; experiment: Real-time qPCR, SASP factor IL-1β; conditions: vs MSCs exposed to TNF-α/IFN-γ; FIG. 4A
Procedure: as §1
(§2) In the present experiment, the expression of IL-1β, IL-6, and monocyte chemotactic protein-1 (MCP-1), which are SASP-associated factors of the untreated MSC control, the TNF-α/IFN-γ-exposed MSC control (TI), and the experimental group treated with the example compound in the TNF-α/IFN-γ-exposed MSC control was analyzed by real-time qPCR. As the real-time qPCR analysis method, the same method described in Experimental Example 1-2 above was used, and the results are shown in FIGS. 4A to 4C.

[3] = system: IL-6; experiment: Real-time qPCR, SASP factor IL-6; conditions: vs MSCs exposed to TNF-α/IFN-γ; FIG. 4B
Procedure: as §1, §2

[4] = system: S6K; experiment: Western blotting, S6K phosphorylation ratio (mTORC1 pathway); conditions: vs MSC control exposed to TNF-α/IFN-γ; FIG. 4D
Procedure: Further, the phosphorylation-induced activation ratios of AKT/mTOR/S6K, which represents the mTORC1 pathway, was analyzed. mTORC1 activation is known to not only induce senescence-associated phenotypes in MSCs, but also impair quiescence and sternness. In the present experiment, the phosphorylation ratio was confirmed using western blotting analysis as described below.
Proteins were extracted with a Pro-Prep protein lysis buffer (iNtRON) and quantified by a protein quantitative analysis kit (BIOMAX, Seoul, Korea). Samples were then heated in 4× Laemmli sample buffer (Bio-Rad) containing 2-mercaptoethanol (Bio-Rad), and proteins were loaded onto an 8% sodium dodecyl sulfate polyacrylamide gel and electrophoresed at 60 V for 30 minutes, and then electrophoresed at 120 V for 1 hour. […]
Immunoreactive bands were detected using an enhanced chemiluminescence detection reagent (Clarity™ Western blot substrate, Bio-Rad) and images of the bands were obtained using ImageSaver Version 6 (ATTO, Tokyo, Japan). The intensity of each band was analyzed with CA4 analyzer software (ATTO), and each experiment was performed in triplicate under the same conditions. […]

O=S1(=O)CCN(Cc2cc(NC3CCOCC3)c3[nH]c(-c4ccccc4)cc3c2)CC1 [example compound, 5-[(1,1-dioxido-4-thiomorpholinyl)methyl]-2-phenyl-N-(tetrahydro-2H-pyran-4-yl)-1H-indole-7-amine]
DRP1 expression level [1]: slightly reduced | decrease of IL-1β expression [2]: about 55% | IL-6 expression level [3]: decreased | reduction of S6K phosphorylation ratio (pS6K/S6K) [4]: ~40%
